Test results as given in publication PMC8318231, “Rate-of-Kill (RoK) assays to triage large compound sets for Chagas disease drug discovery: Application to GSK Chagas Box” (PLoS Neglected Tropical Diseases, 2021).
Like-named read-outs stand apart in the source and are kept apart here.

Key:
[1] = tested on: T. cruzi Tulahuen trypomastigotes; test: T. cruzi trypomastigote assay (Cell Titer-Glo viability, ATP luminescence); assay type: cell-based, Trypanosoma cruzi; details: for activity in trypomastigotes assay (in words): 48 and 72 hours; for Trypomastigotes pIC50 48 hours: 48 hours incubation; for Trypomastigotes pIC50 48 hours / Trypomastigotes pIC50 72 hours: pIC50 = -log10 IC50 in molar units; for Trypomastigotes pIC50 72 hours: 72 hours incubation; for IC50: Trypanosoma cruzi, TULAHUEN; for 72 pIC50 (trypomastigotes, raw data of Fig 1D): 72 hours, plotted values, censored values given without sign; for 48 pIC50 / 72 pIC50: trypomastigote assay
Outline: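 Tulahuen trypomastigotes from infected LLC-MK2 culture supernatants (days 5–8) plated at 5 × 10^4 per well in DMEM/2% FBS with compound at 5 μM single-shot final or in dose response. Viability by CellTiter-Glo ATP luminescence after 10 min at room temperature, normalised to no-cell (100%) and DMSO (0%) controls.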

TcCYP51 = details: cited from earlier work; for CYP51 pIC50: formerly reported
[2] = tested on: H9c2 (rat cardiomyocytes); test: RoK assay, number of host cells nuclei (drug-related cytotoxicity, H9c2 output, Cmin_Tox); details: for Cmin_Tox: H9c2 host cells
Procedure: For this high-content intracellular imaging assay, H9c2 cells were seeded in 225 cm^2 T- FLASK in DMEM with 10% FBS for 4 h to allow attachment. T. cruzi trypomastigotes, collected at days 5 to 8 after infection from LLC-MK2 parasite infected cultures, were allowed to swim out for 4 h at 37°C from a centrifuged pellet (1,600 x g / 10 min). Trypomastigotes were then collected and counted in a CASY Cell Counter using the 60 μm capillary. […] Cells were washed once with PBS before incubation of the infected H9c2 monolayer with trypsin (Life-Technologies) to detach cells from the flask. Cells were counted in a CASY Cell Counter, using the 150 μm capillary, and their density set at 5 x 10^4 cells/mL in supplemented DMEM. Infected H9c2 were dispensed into 384-well plates at 50 μL per well using a Multidrop Combi dispenser. Control wells used to determine a 100% parasitic growth (full 6th column of each plate) were left untreated, whereas not infected cells were added in the control wells used as 0% parasite growth (or 100% parasite growth inhibition; full 18th column of each plate). The four plates corresponding to each RoK assay were predispensed for the same mother plate. […] Cultures were then fixed and stained with 50 μL per well of a PBS solution containing 4% formaldehyde and 2 μM DRAQ5 DNA dye (BioStatus, UK). Then plates were read in a PerkinElmer Opera Phenix using a 20x objective, 3 fields per well. DRAQ5 signal was detected using 640 nm excitation laser and a 690/50 nm emission detection filter. Automated image analysis was performed with a script developed on Acapella High Content Imaging and Analysis Software (PerkinElmer). Two outputs were provided for each sample well: (1) number of host cells nuclei to determine drug-related cytotoxicity (aka H9c2) and (2) number of amastigotes per cell as infection level measurement (aka AM/CELL). Each output is plotted as a time course for each compound at every concentration. This assay was adapted from Alonso-Padilla et al. and Peña et al..
• ME (Maximum Effect) is the maximum percentage of parasite burden reduction reached by any compound concentration. Compounds that decrease the initial parasite load will show a positive value of ME, whereas compounds that allow the progression of infection will render a negative ME value. […] It is calculated for the MCC50 (t50%_MCC50) and for the maximum concentration (t50%_Cmax). […] The value of this parameter is not either interpolated or extrapolated, and it refers to the first experimental time-course point at which a 50% of effect is reached or exceeded. • tlag defines the time elapsed for one particular concentration to reduce parasite burden between two consecutive points at any moment of the time course. It is calculated for the MCC50 (tlag_MCC50) and for the maximum concentration (tlag_Cmax). The value of this parameter is not either interpolated or extrapolated, and it refers to the first experimental time-course point of a positive slope in the normalised plot (i.e. %Cidal_Response). • Cmin_Tox (Minimal CytoToxic Concentration) is the lowest compound concentration that is reducing the number of host mammalian cells below 50% of initial cell density. Cytotoxic compounds may mislead a bona fide antiparasitic action. Therefore, this descriptor is used to flag this kind of compounds and warn about the genuine meaning of the rest of descriptors.

| SMILES | activity in trypomastigotes assay (in words) [1] | Trypomastigotes pIC50 48 hours [1] | Trypomastigotes pIC50 72 hours [1] | CYP51 pIC50 (TcCYP51) | Cmin_Tox [2] [µM] | cytotoxicity versus host cells (in words) [2] | IC50 ([1]; 48 h, read-out: Trypomastigotes pIC50 48 hours (converted)) [µM] | IC50 ([1]; 72 h, read-out: Trypomastigotes pIC50 72 hours (converted)) [µM] | pIC50 versus trypomastigotes ([1]; invariable at the two incubation times tested) | CYP51 mean (TcCYP51; TcCYP51 enzyme inhibition, mean, figure 1B, ref original boxes paper) | 72 pIC50 (trypomastigotes, raw data of Fig 1D) [1] | 48 pIC50 ([1]; 48 h, figure 1A) | 72 pIC50 ([1]; 72 h, figure 1A) | 72 pIC50 ([1]; 72 h, figure 1B) |
| --- | --- | --- | --- | --- | --- | --- | --- | --- | --- | --- | --- | --- | --- | --- |
| COc1ccc(-c2nc3ncccc3o2)cc1NC(=O)c1cccs1 [TCMDC-143137] | only active in trypomastigote assay at 72 hours | < 4.3 | 5.2 | < 4 | >50 | – | – | – | – | – | – | – | – | – |
| COc1cccc(CCNC(=O)C(c2cn[nH]c2)N2CCN(c3ccc(Cl)cc3)CC2)c1 (centres unmarked) [TCMDC-143434] | – | 4.4 | 4.5 | 7.2 | >50 | hints of cytotoxicity even at low concentrations | – | – | – | – | – | – | – | – |
| Cc1nc2nc(C)c(Cc3ccc(C(C)C)cc3)c(=O)n2[nH]1 [TCMDC-143087] | active versus trypomastigotes at 48 and 72 hours with the same potency | 5.8 | 5.9 | < 4 | >50 | – | – | – | – | – | – | – | – | – |
| CNc1cc(C)nc(C2CN(C(=O)c3n[nH]c4ccccc34)CCO2)c1 (centres unmarked) [TCMDC-143494] | – | 5.9 | 5.5 | < 4 | >50 | – | – | – | – | – | – | – | – | – |
| O=C(Cn1ccnc1[N+](=O)[O-])NCc1ccccc1 [Benznidazole, benznidazole, reference compound] | active | – | – | < 4 | >50 | – | 6.31 | 5.01 | 5.3 | 4.3 | – | – | – | – |
| Cc1nn(C)c(Cl)c1CN(Cc1cccnc1)Cc1ccsc1 [TCMDC-143477] | – | < 4.3 | < 4.3 | 7.2 | >50 | – | – | – | – | – | < 4.3 | < 4.3 | < 4.3 | < 4.3 |
| COc1cc(-c2nc(N3CCOCC3)sc2-c2ccnc(NC3CCOCC3)n2)ccc1Cl.O=C(O)C(F)(F)F [TCMDC-143414] | – | < 4.3 | < 4.3 | < 4 | >50 | – | – | – | – | – | < 4.3 | < 4.3 | < 4.3 | < 4.3 |
| c1ccc2c(CCOc3nccnc3-c3ccncc3)c[nH]c2c1 [TCMDC-143562] | – | 4.4 | 4.5 | 7.2 | >50 | – | – | – | – | – | – | – | – | – |
| Clc1ccc(Sc2cnccc2N2CCOCC2)cc1 [TCMDC-143602] | – | 4.5 | < 4.3 | 7.5 | >50 | – | – | – | – | – | – | – | – | – |
| Cc1nccn1C1CCCN(C(=O)c2cc3c(F)cccc3s2)C1 (centres unmarked) [TCMDC-143498] | – | 4.7 | 4.7 | 4.3 | >50 | – | – | – | – | – | 4.7 | 4.7 | 4.7 | 4.7 |
| COc1ccc(NS(=O)(=O)c2cccc(NC(=O)c3cc(F)cc(F)c3)c2)cc1 [TCMDC-143108] | – | 5 | 5.6 | < 4 | >50 | – | – | – | – | – | – | – | – | – |
